Data from patent US20260166162A1, “CARBON CHAIN SUBSTANCE FOR REGULATING TRANSMEMBRANE TRANSPORT AND FLUIDITY OF CELL MEMBRANES, AND PREPARATION AND USE THEREOF” (priority 2022, published 2026).
Where two headings read alike, the source gives them in different places.

Legend:
Format in all cases: cell-based
[1] = system: SARS-CoV-2 pseudovirus (B.1.526.2)
human pancreatic β-cells = assay: Insulin secretion from human islet β cells (ELISA of supernatant); settings: 6 h
HIV pseudovirus (18A-41) = settings: 293T cells pretreated 4 h, n=3
[2] = 100 μM, negative value = promotes infection

In the case of “Uridine diphosphate glucose-oleic acid [UDPGA-OA]”, the “Inhibition rate (%)” value ([1]; 0.002 µM) is reported as 44.54 ± 1.23%, the “Inhibition rate (%)” value ([1]; 0.005 µM) is reported as 50.06 ± 1.05% and the “Inhibition rate (%)” value ([1]; 0.01 µM) is reported as 54.94 ± 1.84%. For the same molecule, the “Inhibition rate (%)” value ([1]; 0.05 µM) was 67.33 ± 1.00%, the “Inhibition rate (%)” value ([1]; 0.1 µM) was 84.96 ± 4.55% and the “Inhibition rate (%)” value ([1]; 1 µM) was -82.33 ± 0.53%. For the same molecule, the “Inhibition rate (%)” value ([1]; 10 µM) was -54.00 ± 0.23%, the “Inhibition rate (%)” value ([1]; 50 µM) was 73.06 ± 0.26% and the “Inhibition rate (%)” value ([1]; 100 µM) was 83.61 ± 0.88%.
In the case of NC(CCCCNC(=O)CCCCCCCCCCCCCCCCCCC(=O)O)C(=O)O (stereo not drawn) [Lys-eicosanedioic acid], the “Insulin” value (human pancreatic β-cells; 2 nM) is reported as 0.34 ng/mL, the “Insulin” value (human pancreatic β-cells; 5 nM) is reported as 0.35 ng/mL and the “Insulin” value (human pancreatic β-cells; 10 nM) is reported as 0.42 ng/mL. For the same molecule, the “Insulin” value (human pancreatic β-cells; 50 nM) was 0.48 ng/mL, the “Insulin” value (human pancreatic β-cells; 50 μM) was 1.44 ng/mL and the “Insulin” value (human pancreatic β-cells; 100 μM) was 1.48 ng/mL.
With CCC=CCC=CCC=CCC=CCC=CCCCC(=O)OCC(O)C1OC(=O)C(O)=C1O (stereo not drawn) [Ascorbic Acid-EPA] the “Inhibition rate (%)” value (HIV pseudovirus (18A-41); 2 nM) was 72.04 ± 6.02%, the “Inhibition rate (%)” value (HIV pseudovirus (18A-41); 5 nM) was 68.76 ± 5.79% and the “Inhibition rate (%)” value (HIV pseudovirus (18A-41); 10 nM) was 86.46 ± 3.84%. The “Inhibition rate (%)” value (HIV pseudovirus (18A-41); 50 nM) was 97.33 ± 5.33%, the “Inhibition rate (%)” value (HIV pseudovirus (18A-41); 100 nM) was 98.77 ± 3.22% and the “Inhibition rate (%)” value (HIV pseudovirus (18A-41); 1 μM) was -82.83 ± 7.59%. The “Inhibition rate (%)” value (HIV pseudovirus (18A-41); 10 μM) was -64.54 ± 5.62%, the “Inhibition rate (%)” value (HIV pseudovirus (18A-41); 50 μM) was 80.74 ± 4.76% and the “Inhibition rate (%)” value (HIV pseudovirus (18A-41); [2]) was 82.84 ± 4.75%.
With Glucosamine-n-octanoic acid the “Inhibition rate (%)” value (HIV pseudovirus (18A-41); 2 nM) was 22.59 ± 6.09%, the “Inhibition rate (%)” value (HIV pseudovirus (18A-41); 5 nM) was 54.47 ± 2.09% and the “Inhibition rate (%)” value (HIV pseudovirus (18A-41); 10 nM) was 78.34 ± 3.66%. The “Inhibition rate (%)” value (HIV pseudovirus (18A-41); 50 nM) was 89.33 ± 3.65%, the “Inhibition rate (%)” value (HIV pseudovirus (18A-41); 100 nM) was 88.76 ± 4.87% and the “Inhibition rate (%)” value (HIV pseudovirus (18A-41); 1 μM) was -62.33 ± 3.93%. The “Inhibition rate (%)” value (HIV pseudovirus (18A-41); 10 μM) was -84.26 ± 6.61%, the “Inhibition rate (%)” value (HIV pseudovirus (18A-41); 50 μM) was 51.09 ± 9.38% and the “Inhibition rate (%)” value (HIV pseudovirus (18A-41); [2]) was 53.68 ± 6.07%.
In the case of CCCCCCCCCCCCCCCCCC(=O)OCC(N)C(=O)O (stereo not drawn) [Ser-stearic acid], the “Insulin” value (human pancreatic β-cells; 2 nM) is reported as 0.28 ng/mL, the “Insulin” value (human pancreatic β-cells; 5 nM) is reported as 0.30 ng/mL and the “Insulin” value (human pancreatic β-cells; 10 nM) is reported as 0.41 ng/mL. The “Insulin” value (human pancreatic β-cells; 50 nM) was 0.48 ng/mL, the “Insulin” value (human pancreatic β-cells; 50 μM) was 1.38 ng/mL and the “Insulin” value (human pancreatic β-cells; 100 μM) was 1.41 ng/mL.
Glucose-pentadecanedioic acid was tested, and the “Insulin” value (human pancreatic β-cells; 2 nM) was 0.22 ng/mL, the “Insulin” value (human pancreatic β-cells; 5 nM) was 0.23 ng/mL and the “Insulin” value (human pancreatic β-cells; 10 nM) was 0.36 ng/mL. For the same molecule, the “Insulin” value (human pancreatic β-cells; 50 nM) was 0.43 ng/mL, the “Insulin” value (human pancreatic β-cells; 50 μM) was 1.48 ng/mL and the “Insulin” value (human pancreatic β-cells; 100 μM) was 1.52 ng/mL.
In the case of “Uridine diphosphate glucose-pentacosanoic acid [UDPGA-C25]”, the “Inhibition rate (%)” value ([1]; 0.002 µM) is reported as 46.04 ± 0.98%, the “Inhibition rate (%)” value ([1]; 0.005 µM) is reported as 49.66 ± 0.58% and the “Inhibition rate (%)” value ([1]; 0.01 µM) is reported as 48.66 ± 1.59%. The “Inhibition rate (%)” value ([1]; 0.05 µM) was 59.03 ± 1.25%, the “Inhibition rate (%)” value ([1]; 0.1 µM) was 88.64 ± 4.53% and the “Inhibition rate (%)” value ([1]; 1 µM) was -12.03 ± 0.83%. For the same molecule, the “Inhibition rate (%)” value ([1]; 10 µM) was -64.26 ± 0.59%, the “Inhibition rate (%)” value ([1]; 50 µM) was 71.36 ± 0.88% and the “Inhibition rate (%)” value ([1]; 100 µM) was 92.33 ± 0.73%.
With “cholylglycine-Ricinoleic acid [cholylglycine-C18-1-OH]” the “Inhibition rate (%)” value ([1]; 2 nM, n=3) was 72.59 ± 5.58%, the “Inhibition rate (%)” value ([1]; 5 nM, n=3) was 74.66 ± 1.25% and the “Inhibition rate (%)” value ([1]; 10 nM, n=3) was 78.34 ± 2.55%. The “Inhibition rate (%)” value ([1]; 50 nM, n=3) was 89.33 ± 2.25%, the “Inhibition rate (%)” value ([1]; 100 nM, n=3) was 88.76 ± 4.58% and the “Inhibition rate (%)” value ([1]; 1 μM, n=3) was -32.33 ± 0.57%. For the same molecule, the “Inhibition rate (%)” value ([1]; 10 μM, n=3) was -54.26 ± 0.88%, the “Inhibition rate (%)” value ([1]; 50 μM, n=3) was 71.09 ± 0.58% and the “Inhibition rate (%)” value ([1]; 100 μM, n=3) was 73.68 ± 0.71%.
For Adenosine monophosphate-lauroic acid, the “Insulin” value (human pancreatic β-cells; 2 nM) was 0.37 ng/mL, the “Insulin” value (human pancreatic β-cells; 5 nM) was 0.38 ng/mL and the “Insulin” value (human pancreatic β-cells; 10 nM) was 0.43 ng/mL. For the same molecule, the “Insulin” value (human pancreatic β-cells; 50 nM) was 0.49 ng/mL, the “Insulin” value (human pancreatic β-cells; 50 μM) was 1.49 ng/mL and the “Insulin” value (human pancreatic β-cells; 100 μM) was 1.53 ng/mL.
In the case of CCCCCCCCCC(=O)NCCCCC(N)C(=O)O (stereo not drawn) [Lys-n-decanoic acid], the “Insulin” value (human pancreatic β-cells; 2 nM) is reported as 0.45 ng/mL, the “Insulin” value (human pancreatic β-cells; 5 nM) is reported as 0.47 ng/mL and the “Insulin” value (human pancreatic β-cells; 10 nM) is reported as 0.56 ng/mL. The “Insulin” value (human pancreatic β-cells; 50 nM) was 0.60 ng/mL, the “Insulin” value (human pancreatic β-cells; 50 μM) was 1.53 ng/mL and the “Insulin” value (human pancreatic β-cells; 100 μM) was 1.63 ng/mL.
